Laboratory results reported in the supplement of paper PMC10307832.

Legend:
Test in all cases: relative viability (nuclei count vs DMSO), 5 days (fraction); higher = more cells survive
[1] = compound: COc1ncc(-c2ccc3nccc(-c4ccnnc4)c3c2)cc1NS(=O)(=O)c1ccc(F)cc1F [Omipalisib] + Nc1nc2[nH]cc(CCc3ccc(C(=O)N[C@@H](CCC(=O)O)C(=O)O)cc3)c2c(=O)[nH]1 [Pemetrexed] (partner 0.2 µM)
Summary of the method: (§1)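 Relative viability equals treated-well nuclei counts divided by vehicle-well nuclei counts. Counts came from 4× images of lung cancer cell lines grown in 1536-well plates for 5 days after pin-tool dosing on the day after seeding. Dosing used one drug alone or a fixed anchor-drug dose plus five library-drug doses (not always all listed) in √10 steps, and values are medians of duplicate plates.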

[2] = compound: COc1ncc(-c2ccc3nccc(-c4ccnnc4)c3c2)cc1NS(=O)(=O)c1ccc(F)cc1F [Omipalisib] + CC1(C)CCC(c2ccc(Cl)cc2)=C(CN2CCN(c3ccc(C(=O)NS(=O)(=O)c4ccc(N[C@H](CCN5CCOCC5)CSc5ccccc5)c(S(=O)(=O)C(F)(F)F)c4)cc3)CC2)C1 [Navitoclax] (partner 0.5 µM)
Summary of the method: as §1

[3] = compound: COc1ncc(-c2ccc3nccc(-c4ccnnc4)c3c2)cc1NS(=O)(=O)c1ccc(F)cc1F [Omipalisib] + Cc1cc(Nc2cc(N3CCN(C)CC3)nc(Sc3ccc(NC(=O)C4CC4)cc3)n2)n[nH]1 [Tozasertib] (partner 0.1 µM)
Summary of the method: as §1

[4] = compound: COc1ncc(-c2ccc3nccc(-c4ccnnc4)c3c2)cc1NS(=O)(=O)c1ccc(F)cc1F [Omipalisib] + C[C@@H](Oc1cc(-c2cnn(C3CCNCC3)c2)cnc1N)c1c(Cl)ccc(F)c1Cl [Crizotinib] (partner 1 µM)
Summary of the method: as §1

[5] = compound: COc1ncc(-c2ccc3nccc(-c4ccnnc4)c3c2)cc1NS(=O)(=O)c1ccc(F)cc1F [Omipalisib] + NC(=O)Nc1cc(-c2cccc(F)c2)sc1C(=O)N[C@H]1CCCNC1 [AZD7762] (partner 0.2 µM)
Summary of the method: as §1

[6] = compound: COc1ncc(-c2ccc3nccc(-c4ccnnc4)c3c2)cc1NS(=O)(=O)c1ccc(F)cc1F [Omipalisib] + O=C(c1cc(Cc2n[nH]c(=O)c3ccccc23)ccc1F)N1CCN(C(=O)C2CC2)CC1 [Olaparib] (partner 8 µM)
Summary of the method: as §1

Cell Line | relative viability ([1]; first compound 0.0003 µM) | relative viability ([1]; first compound 0.003 µM) | relative viability ([1]; first compound 0.03 µM) | relative viability ([2]; first compound 0.0003 µM) | relative viability ([2]; first compound 0.003 µM) | relative viability ([2]; first compound 0.03 µM) | relative viability ([3]; first compound 0.0003 µM) | relative viability ([3]; first compound 0.003 µM) | relative viability ([3]; first compound 0.03 µM) | relative viability ([4]; first compound 0.0003 µM) | relative viability ([4]; first compound 0.003 µM) | relative viability ([4]; first compound 0.03 µM) | relative viability ([5]; first compound 0.0003 µM) | relative viability ([5]; first compound 0.003 µM) | relative viability ([5]; first compound 0.03 µM) | relative viability ([6]; first compound 0.0003 µM) | relative viability ([6]; first compound 0.003 µM) | relative viability ([6]; first compound 0.03 µM)
NCI-H3122 | 0.214 | 0.192 | 0.202 | 1.02 | 0.991 | 0.402 | 0.348 | 0.26 | 0.172 | 0.258 | 0.231 | 0.159 | 1.01 | 0.613 | 0.432 | 0.696 | 0.585 | 0.356
NCI-H2085 | 0.986 | 0.855 | 0.406 | 1.12 | 0.951 | 0.509 | 0.905 | 0.693 | 0.361 | 0.789 | 0.886 | 0.407 | 1.06 | 0.84 | 0.385 | 0.829 | 0.713 | 0.303
ChaGo-K-1 | 0.273 | 0.254 | 0.255 | 0.762 | 0.686 | 0.945 | 0.242 | 0.202 | 0.167 | 1.04 | 1.09 | 1.07 | 0.899 | 0.811 | 0.836 | 0.455 | 0.38 | 0.399
NCI-H460 | 0.0592 | 0.0512 | 0.0757 | 1.06 | 0.61 | 0.143 | 0.476 | 0.393 | 0.0957 | 0.772 | 0.589 | 0.132 | 0.645 | 0.621 | 0.277 | 0.337 | 0.373 | 0.167
HCC-78 | 0.88 | 0.927 | 0.922 | 0.68 | 0.466 | 0.193 | 0.327 | 0.328 | 0.21 | 0.299 | 0.232 | 0.192 | 0.593 | 0.508 | 0.281 | 0.665 | 0.542 | 0.298
NCI-H322M | 0.584 | 0.585 | 0.452 | 1.21 | 0.823 | 0.515 | 0.467 | 0.407 | 0.348 | 0.859 | 0.843 | 0.532 | 0.54 | 0.455 | 0.482 | 0.802 | 0.815 | 0.515
A-427 | 0.983 | 0.922 | 0.931 | 0.957 | 0.732 | 0.872 | 0.206 | 0.188 | 0.163 | 0.818 | 0.736 | 0.639 | 0.715 | 0.628 | 0.579 | 0.699 | 0.604 | 0.611
BEN | 0.694 | 0.581 | 0.569 | 0.0683 | 0.0526 | 0.0581 | 0.43 | 0.426 | 0.457 | 0.635 | 0.531 | 0.464 | 0.533 | 0.495 | 0.521 | 1.01 | 0.769 | 0.607
NCI-H2087 | 0.646 | 0.558 | 0.597 | 0.918 | 0.749 | 0.535 | 0.243 | 0.224 | 0.126 | 0.795 | 0.935 | 0.734 | 1.29 | 1.55 | 0.772 | 0.602 | 0.344 | 0.291
PC-14 | 0.151 | 0.155 | 0.161 | 1.02 | 1.07 | 0.923 | 0.672 | 0.674 | 0.411 | 0.855 | 0.912 | 0.799 | 0.294 | 0.327 | 0.18 | 0.343 | 0.404 | 0.42
LK-2 | 0.253 | 0.211 | 0.16 | 0.595 | 0.285 | 0.343 | 0.17 | 0.166 | 0.183 | 0.241 | 0.234 | 0.247 | 0.382 | 0.148 | 0.134 | 0.747 | 0.29 | 0.238
LC-2-ad | 0.279 | 0.26 | 0.275 | 0.531 | 0.309 | 0.105 | 0.349 | 0.401 | 0.289 | 0.478 | 0.395 | 0.253 | 0.855 | 0.762 | 0.464 | 0.779 | 0.796 | 0.639
HCC-44 | 0.68 | 0.682 | 0.694 | 0.848 | 0.63 | 0.27 | 1.03 | 0.953 | 0.234 | 0.783 | 0.74 | 0.308 | 1 | 1.13 | 1.07 | 1.01 | 0.974 | 0.534
LU99A | 0.186 | 0.192 | 0.191 | 0.5 | 0.512 | 0.293 | 0.289 | 0.233 | 0.215 | 0.55 | 0.449 | 0.225 | 0.291 | 0.265 | 0.165 | 0.271 | 0.27 | 0.214
HARA | 0.274 | 0.272 | 0.21 | 1.1 | 1.19 | 0.733 | 0.11 | 0.0779 | 0.0711 | 1.09 | 1.02 | 0.395 | 0.384 | 0.461 | 0.334 | 0.699 | 0.512 | 0.214
NCI-H838 | 0.25 | 0.229 | 0.214 | 1.1 | 0.997 | 0.501 | 0.293 | 0.222 | 0.221 | 0.767 | 0.57 | 0.354 | 0.895 | 0.828 | 0.725 | 0.745 | 0.564 | 0.302
NCI-H647 | 0.189 | 0.158 | 0.183 | 0.873 | 0.86 | 0.542 | 0.33 | 0.158 | 0.0783 | 0.979 | 0.921 | 0.443 | 0.403 | 0.322 | 0.215 | 0.582 | 0.426 | 0.233
